Reference: US20210393606A1, “THERAPEUTIC AGENT FOR FRONTAL LOBE DYSFUNCTION” (KYOWA HAKKO KIRIN CO., LTD., priority 2015, published 2021)

Columns and labels:
[1] = tested on: NAC61-95-treated Slc:ICR mice (α-synucleinopathy model); assay: Spontaneous alternation task (Y-maze) in NAC61-95-treated α-synucleinopathy model mice; type: in vivo, mouse; settings: NAC61-95 mice
Protocol: (§1) By reference to articles (Science, 338, p. 949 (2012); Behavioral Brain Reexplore, 208, p. 274 (2010)), an animal model capable of confirming a treatment and/or prophylactic effect on α-synucleinopathy, for example, Lewy body disease (for example, cognitive impairment in Parkinson's disease, diffuse Lewy body disease, dementia with lewy bodies, movement disorder associated with Lewy body disease and the like) was generated as follows.
The cognitive function was evaluated using a spontaneous alternation task. The spontaneous alternation task is known as an evaluation system of cognitive function utilizing properties of animal to willingly explore a novel environment (Neuroscience and Biobehavioral Reviews 28, p. 497 (2004)). […] The motor function was evaluated by analyzing gait function in natural walk conditions using a gait analysis system. […]
Mice were brought into the experiment room on the previous day of test for habituation. […] Entry of all four limbs of a mouse into one arm was defined as entry into arm, and the order of entry of the mice into the arm was recorded. A behavior of continuous entry into all three different arms was defined as spontaneous alternation behavior, and the percentage of alternation behavior was calculated by the following calculation formula. […]

[2] = tested on: NAC61-95-treated Slc:ICR mice (α-synucleinopathy model); assay: Gait analysis (CatWalk XT) in NAC61-95-treated α-synucleinopathy model mice; type: in vivo, mouse; settings: NAC61-95 mice
Protocol: as §1
The cognitive function was evaluated using a spontaneous alternation task. The spontaneous alternation task is known as an evaluation system of cognitive function utilizing properties of animal to willingly explore a novel environment (Neuroscience and Biobehavioral Reviews 28, p. 497 (2004)). That is, if the animal remembers the arm previously entered in exploration in a Y-maze apparatus, the behavior of spontaneous entry into a different arm is expressed by an alternation behavior rate, and used as an index of cognitive function. The motor function was evaluated by analyzing gait function in natural walk conditions using a gait analysis system.
NAC61-95 (custom, Sigma) was dissolved in PBS to prepare 4 μg/μL NAC61-95 solution.
Under pentobarbital (Somnopentyl, Kyoritsuseiyaku, 50 mg/kg, i.p.) anesthesia, 5 μL of NAC61-95 solution was injected using a Hamilton syringe (10 μL) equipped with a double needle (27G, needle length 3 mm) into the right lateral cerebral ventricle of Slc:ICR mice (male, Japan SLC) over about 1 min, and stood for 1 min to induce cognitive impairment and/or movement disorder. The sham treatment group was injected with 5 μL of PBS.
A gait analysis system (CatWalk XT, ver. 9.1, Noldus) was used. The system was constituted of a walkway with pressure dependent luminescence glass and a light source, luminescence ceiling, highly sensitive highspeed camera and analysis software, and the gait was analyzed by digitizing the brightness of the light emitted by the pressure dependent luminescence glass in response to the pressure. The gait data was automatically recorded and analyzed by the analysis software only when the mice moved straight forward without stopping in the predetermined area on the walkway.
The mice were brought into the experiment room without light and habituated for not less than 1 hr. The mice were placed in the apparatus, and allowed to walk freely until 6 running data were obtained for each mouse. The earliest three analyzable running data were used, and mean was calculated. By reference to an article relating to movement disorder in Parkinson's disease animal model (Journal of Biomedical Science 17, p. 9 (2010)), a decrease in the maximum contact area (Total surface area of certain paw at the moment of maximum paw contact) and print area (total surface area of the paw print), as well as change in the gait pattern (sequence of contact of 4 paws) were used as indices of movement disorder.
At 60 min before the test, compound (I) (suspended in 0.5 w/v % aqueous MC solution, and prepared to 0.5 mL per 100 g body weight of mouse on the administration day) was orally administered at a dose of 0.1 mg/kg, or a vehicle (0.5 w/v % aqueous MC solution) free of the test compound was orally administered at 0.5 mL per 100 g body weight of mice on the administration day.

[3] = tested on: SLC: ICR male mice injected with α-synuclein or NAC61-95; assay: α-Synucleinopathy model (α-synuclein or NAC61-95 injected mice), behavioral pharmacological evaluation, Experimental Example 2; type: in vivo, mouse; settings: appropriate dose, a few hours after administration; written in present tense, no data
Description: as §1, with “is generated.” for “was generated as follows.”
An appropriate dose of a solution of α-synuclein (rPeptide, S-100) or NAC61-95 (custom, Sigma) dissolved in phosphate buffered saline (PBS) is injected to the striatum or lateral cerebral ventricle of SLC: ICR male mice to induce cognitive impairment and/or movement disorder. After confirmation of the pathology induction, an appropriate dose of compound (I) is administered to the mice.

[4] = tested on: medial prefrontal dopaminergic terminal-lesioned rat; assay: Object recognition test using medial prefrontal dopaminergic terminal-lesioned rat; type: in vivo; settings: lesioned rats
Description: The object recognition test is known as an evaluation system of cognitive function utilizing properties of animal to willingly explore a new object (Behavioural Brain Research 31, p. 47 (1988)). An animal is placed in an apparatus containing two identical objects and allowed to freely explore (acquisition trial), after which one of the objects in the apparatus is changed to one having a different shape (novel object) and the animal is allowed to freely explore (test trial). […] In this test, such property is evaluated as an index of cognitive function.
CD(SD)IGS rat (male, Charles River) received Pentobarbital sodium salt (Tokyo Chemical Industry Co., Ltd., 30 mg/kg) intraperitoneally and fixed on a brain stereotaxis apparatus (SR-6, Narishige kagaku kikai kenkyusho) under anesthesia. Using a microinjection pump (CMA/100, Carnegie Medicine), dopaminergic neurotoxin, 6-hydroxidopamine hydrochloride (6-OHDA, Sigma-Aldrich) was injected over about 1 min at (1) 3.2 mm anterior, 0.8 mm left lateral and 3.0 mm ventral, (2) 3.2 mm anterior, 0.8 mm right lateral and 3.0 mm ventral, (3) 3.2 mm anterior, 0.8 mm left lateral and 5.0 mm ventral, (4) 3.2 mm anterior, 0.8 mm right lateral and 5.0 mm ventral, (5) 4.2 mm anterior, 0.8 mm left lateral and 4.0 mm ventral, and (6) 4.2 mm anterior, 0.8 mm right lateral and 4.0 mm ventral, each from the bregma suture of the rats to lesion dopaminergic terminals in the medial prefrontal cortex. 6-OHDA was prepared at a concentration of 4 μg/μL, injected at a flow rate of 1 μL/min over 1 min, and stood for 1 min. In the sham operated group, a stainless cannula was inserted into the same coordinates. […] The dosing volumes of pentobarbital sodium and desipramine hydrochloride were calculated at 1 and 5 mL/kg based on the body weight measured on the administration day. […]
To familiarize the rats with the experimenter, they were handled for 3 days before the test. […] The time spent in exploration (sniffing) each object of the rats in the test trial was measured, and the ratio (%) relative to the total exploration time was calculated. […]

[5] = 0.1 mg/kg orally 60 min before test, mean±standard error
[6] = 0.3 mg/kg orally 60 min before test, 3 min test trial, mean±standard error

For `Cc1ccc(C(=O)Nc2nc(-c3ccco3)c(C(=O)C3CCOCC3)s2)cn1` [compound (I)], the “alternation behavior (%)” value ([1]; 0.1 mg/kg orally 60 min before test, Y-maze 7 min, mean±standard error) was 69.5 ± 2.4%, the “alternation behavior compared to the vehicle administration group” value ([1]; 0.1 mg/kg orally, Student's t-test p<0.01) was “significantly high” and the “gait pattern AA” value ([2]; AA: right forepaw → right hindpaw → left forepaw → left hindpaw, 0.1 mg/kg orally, mean±standard error) was 0.00 ± 0.00. For the same compound, the “gait pattern AB” value ([2]; AB: right forepaw → left hindpaw → left forepaw → right hindpaw, 0.1 mg/kg orally, mean±standard error) was 81.86 ± 4.25, the “gait pattern CA” value ([2]; CA: right forepaw → left forepaw → right hindpaw → left hindpaw, 0.1 mg/kg orally, mean±standard error) was 13.39 ± 4.00 and the “gait pattern CB” value ([2]; CB: right forepaw → left hindpaw → right hindpaw → left forepaw, 0.1 mg/kg orally, mean±standard error) was 4.75 ± 1.79. For the same compound, the “change of gait pattern compared to the vehicle administration group” value ([2]; 0.1 mg/kg orally) was “an increase in pattern AB and a decrease in pattern CB”, the “maximum contact area, left forepaw” value [2, 5] was 0.30 ± 0.02 and the “maximum contact area, left hindpaw” value [2, 5] was 0.31 ± 0.02. For the same compound, the “maximum contact area, right forepaw” value [2, 5] was 0.29 ± 0.02, the “maximum contact area, right hindpaw” value [2, 5] was 0.30 ± 0.02 and the “print area, left forepaw” value [2, 5] was 0.40 ± 0.02. The “print area, left hindpaw” value [2, 5] was 0.38 ± 0.03, the “print area, right forepaw” value [2, 5] was 0.39 ± 0.02 and the “print area, right hindpaw” value [2, 5] was 0.37 ± 0.03. The “maximum contact area and gait area of the left hindpaw compared to the vehicle administration group” value ([2]; 0.1 mg/kg orally, p<0.05) was “significantly large”, the “maximum contact area and gait area of the right forepaw compared to the vehicle administration group” value ([2]; 0.1 mg/kg orally, p<0.1) was “tendency of the maximum contact area and gait area of the right forepaw being large” and the “pathology (cognitive impairment and/or movement disorder) by Y-maze, spontaneous motor activity, CATWALK” value [3] was “Improvement of the pathology”. The “ratio (%) of exploration time, familiar object” value [4, 6] was 34.97 ± 2.88%, the “ratio (%) of exploration time, novel object” value [4, 6] was 65.03 ± 2.88% and the “exploration time of the novel object compared with the familiar object” value ([4]; 0.3 mg/kg orally, paired t-test p<0.001) was “significantly longer”.
